Test results taken from patent US20240415819A1, “MACROCYCLIC COMPOUNDS AS PROTEASOME SUBUNIT BETA TYPE-5 INHIBITORS” (Lead Discovery Center GmbH, priority 2021, published 2024).

Tests used:
[1] = target: T1, β5 subunit of the human constitutive proteasome (CPS) (Homo sapiens, UniProt P28074); experiment: β5 inhibition assay, human constitutive proteasome (Suc-LLVY-AMC); assay type: biochemical; settings: IC50 class, Suc-LLVY-AMC substrate
T1 construct: purchased Boston Biochem E-360
Procedure: The enzymatic activity of the β5 subunit of the human constitutive proteasome (CPS) is analyzed. In another assay, which differs from the assay of the human constitutive proteasome only in using the human immunoproteasome (IPS) the enzymatic activity of the β5 subunit of the human immunoproteasome (IPS) is analyzed. […] Inhibition is indicated as IC50 [nM] (“-”=not measured).

[2] = target: T2, β5 subunit of the human immunoproteasome (IPS) (Homo sapiens, UniProt P28062); experiment: β5 inhibition assay, human immunoproteasome (Suc-LLVY-AMC); assay type: biochemical; settings: IC50 class, Suc-LLVY-AMC substrate
T2 construct: purchased Boston Biochem E-370
In short: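 Human immunoproteasome (1 nM final) was preincubated 10 min at RT with compound in 100 mM HEPES pH 7.5, 50 mM NaCl, 0.02% SDS, 1 mM DTT. Suc-LLVY-AMC (22.6 μM final) was then added for 4 h at RT in the dark. After stopping with 1 μM bortezomib, AMC fluorescence was read (ex 355/em 460 nm).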

HT-29 cells = experiment: CellTiter-Glo luminescent cell viability assay with HT-29 cells (72h incubation); assay type: cell-based, human; settings: Homo sapiens, HT-29, HT29 cells, read-out: CTG HT29
In short: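 400 cells per well in DMEM/10% FCS were dosed after 24 h and kept 72 h at 37 °C, 5% CO2. ATP-based luminescence (CellTiter-Glo) normalized to DMSO and 10 μM staurosporine controls; IC50 by dose-response fit.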

[3] = system: A549 (human lung carcinoma cell line); experiment: Glo assay of A549 cells (Table 3; ProteasomeGlo plating scheme); assay type: cell-based; settings: Homo sapiens; A549 cells; read-out: PGLo A549
In short: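 Cells plated in 384 wells; compound, DMSO, staurosporine transferred by ECHO; 105 min, 37° C., 5% CO2; Proteasome-Glo (Suc-LLVY-Glo) reagent added; dark 10-15 min; luminescence; IC50 nM.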

| SMILES | IC50 [1] [nM] | IC50 [2] [nM] | IC50 (HT-29 cells) [nM] | IC50 [3] [nM] |
| --- | --- | --- | --- | --- |
| CC(=O)N[C@H]1CC(=O)N2CCCC(CCOc3ccc(C)c(c3)CNC(=O)C(Cc3ccccc3)NC1=O)C2 (stereo partly drawn) [Compound 558, N-((12S)-9-benzyl-5^4-methyl-8,11,14-trioxo-4-oxa-7,10-diaza-1(3,1)-piperidina-5(1,3)-benzenacyclotetradecaphane-12-yl)acetamide] | < 100 | < 100 | < 100 | 100 to 500 |
| COC(=O)N(CC1NC(=O)[C@@H](NC(C)=O)CC(=O)N2CCCC(CCOc3ccc(C)c(c3)CNC1=O)C2)c1ccccc1 (stereo partly drawn) [Compound 560, methyl (((12S)-12-acetamido-5^4-methyl-8,11,14-trioxo-4-oxa-7,10-diaza-1(3,1)-piperidina-5(1,3)-benzenacyclotetradecaphane-9-yl)methyl)(phenyl)carbamate] | < 100 | < 100 | < 100 | 100 to 500 |
| Cc1ccc2cc1CNC(=O)[C@H](CCc1ccccc1)NC(=O)[C@@H](NC(=O)Cc1cnc(N)s1)CC(=O)N1CCCC(CCO2)C1 (stereo partly drawn) [Compound 311, 2-(2-aminothiazol-5-yl)-N-((9S,12S)-5^4-methyl-8,11,14-trioxo-9-phenethyl-4-oxa-7,10-diaza-1(3,1)-piperidina-5(1,3)-benzenacyclotetradecaphane-12-yl)acetamide] | < 100 | < 100 | < 100 | < 100 |
| Cc1ccc2cc1CNC(=O)[C@H](CCc1ccccc1)NC(=O)[C@@H](NC(=O)OCc1ccccc1)CCCC(=O)N1CCC(CCO2)C1 (stereo partly drawn) [Compound 352, benzyl ((9S, 12S)-5^4-methyl-8,11,16-trioxo-9-phenethyl-4-oxa-7,10-diaza-1(3,1)-pyrrolidina-5(1,3)-benzenacyclohexadecaphane-12-yl)carbamate] | < 100 | < 100 | < 100 | < 100 |
| CC(=O)N[C@H]1CC(=O)N2CCCC(CCOc3ccc(C)c(c3)CNC(=O)C(c3cn(C)cn3)NC1=O)C2 (stereo partly drawn) [Compound 557, N-((12S)-5^4-methyl-9-(1-methyl-1H-imidazol-4-yl)-8,11,14-trioxo-4-oxa-7,10-diaza-1(3,1)-piperidina-5(1,3)-benzenacyclotetradecaphane-12-yl)acetamide] | < 100 | < 100 | 100 to 500 | < 100 |
| Cc1ccc2cc1CNC(=O)[C@H](CCc1ccccc1)NC(=O)[C@@H](NC(=O)c1nc3ccccc3[nH]1)CC(=O)N1CCCC(CCO2)C1 (stereo partly drawn) [Compound 31, N-((9S,12S)-5^4-methyl-8,11,14-trioxo-9-phenethyl-4-oxa-7,10-diaza-1(3,1)-piperidina-5(1,3)-benzenacyclotetradecaphane-12-yl)-1H-benzo[d] imidazole-2-carboxamide] | < 100 | < 100 | < 100 | < 100 |
| CC(=O)N[C@H]1CC(=O)N2CCCC(CCOc3ccc(C)c(c3)CNC(=O)C(c3coc(C)n3)NC1=O)C2 (stereo partly drawn) [Compound 553, N-((12S)-5^4-methyl-9-(2-methyloxazol-4-yl)-8,11,14-trioxo-4-oxa-7,10-diaza-1(3,1)-piperidina-5(1,3)-benzenacyclotetradecaphane-12-yl)acetamide] | < 100 | < 100 | < 100 | 100 to 500 |
| Cc1ccc2cc1CNC(=O)[C@H](CCc1ccccc1)NC(=O)[C@@H](NC(=O)Cc1cc(O)on1)CC(=O)N1CCCC(CCO2)C1 (stereo partly drawn) [Compound 335, 2-(5-hydroxyisoxazol-3-yl)-N-((9S,12S)-5^4-methyl-8,11,14-trioxo-9-phenethyl-4-oxa-7,10-diaza-1(3,1)-piperidina-5(1,3)-benzenacyclotetradecaphane-12-yl)acetamide] | < 100 | < 100 | < 100 | < 100 |
| Cc1ccc2cc1CNC(=O)C(CCc1ccc(S(=O)(=O)O)cc1)NC(=O)[C@@H](NC(=O)OCc1ccccc1)CC(=O)N1CCCC(CCO2)C1 (stereo partly drawn) [Compound 509, 4-(2-((12S)-12-(((benzyloxy)carbonyl)amino)-5^4-methyl-8,11,14-trioxo-4-oxa-7,10-diaza-1(3,1)-piperidina-5(1,3)-benzenacyclotetradecaphane-9-yl)ethyl)benzenesulfonic acid] | < 100 | < 100 | 100 to 500 | < 100 |
| Cc1ccc2cc1CNC(=O)[C@H](CCc1ccccc1)NC(=O)[C@@H](NC(=O)OCc1ccccc1)CCCCC(=O)N1CC(CCO2)C1 [Compound 353, benzyl ((9S,12S)-5^4-methyl-8,11,17-trioxo-9-phenethyl-4-oxa-7,10-diaza-1(3,1)-azetidina-5(1,3)-benzenacycloheptadecaphane-12-yl)carbamate] | < 100 | < 100 | < 100 | < 100 |
| CC(=O)N[C@H]1CC(=O)N2CCCC(CCOc3ccc(C)c(c3)CNC(=O)C(CCC3CCN(C(C)=O)CC3)NC1=O)C2 (stereo partly drawn) [Compound 338, N-((12S)-9-(2-(1-acetylpiperidin-4-yl)ethyl)-5^4-methyl-8,11,14-trioxo-4-oxa-7,10-diaza-1(3,1)-piperidina-5(1,3)-benzenacyclotetradecaphane-12-yl)acetamide] | < 100 | < 100 | < 100 | 100 to 500 |
| Cc1ccc2cc1CNC(=O)[C@H](CCc1ccccc1)NC(=O)[C@@H](NC(=O)OCc1ccccc1)CC(=O)N1CC(C)CC(CCO2)C1 (stereo partly drawn) [Compound 337, benzyl ((9S,12S)-1^5,5^4-dimethyl-8,11,14-trioxo-9-phenethyl-4-oxa-7,10-diaza-1(3,1)-piperidina-5(1,3)-benzenacyclotetradecaphane-12-yl)carbamate] | < 100 | < 100 | < 100 | 100 to 500 |
| CC(=O)N[C@H]1CC(=O)N2CCCC(CCOc3ccc(C)c(c3)CNC(=O)C(c3cnn(CCOCCOCCOCCN)c3)NC1=O)C2 (stereo partly drawn) [Compound 566, N-((12S)-9-(1-(2-(2-(2-(2-aminoethoxy)ethoxy)ethoxy)ethyl)-1H-pyrazol-4-yl)-5^4-methyl-8,11,14-trioxo-4-oxa-7,10-diaza-1(3,1)-piperidina-5(1,3)-benzenacyclotetradecaphane-12-yl)acetamide] | < 100 | < 100 | 100 to 500 | < 100 |
| Cc1ccc2cc1CNC(=O)[C@H](CCc1ccccc1)NC(=O)[C@@H](NC(=O)c1ncccn1)CC(=O)N1CCCC(CCO2)C1 (stereo partly drawn) [Compound 32, N-((9S,12S)-5^4-methyl-8,11,14-trioxo-9-phenethyl-4-oxa-7,10-diaza-1(3,1)-piperidina-5(1,3)-benzenacyclotetradecaphane-12-yl)pyrimidine-2-carboxamide] | < 100 | < 100 | < 100 | < 100 |
| Cc1ccc2cc1CNC(=O)C(c1cnn(C)c1)NC(=O)[C@@H](NC(=O)C1CCCc3ccccc31)CC(=O)N1CCCC(CCO2)C1 (stereo partly drawn) [Compound 360, N-((12S)-5^4-methyl-9-(1-methyl-1H-pyrazol-4-yl)-8,11,14-trioxo-4-oxa-7,10-diaza-1(3,1)-piperidina-5(1,3)-benzenacyclotetradecaphane-12-yl)-1,2,3,4-tetrahydronaphthalene-1-carboxamide] | < 100 | < 100 | < 100 | < 100 |
| Cc1ccc2cc1CNC(=O)[C@H](CCc1ccccc1)NC(=O)[C@@H](NC(=O)OCc1ccccc1)CCC(=O)N1CCC(CO2)C1 (stereo partly drawn) [Compound 349, benzyl ((8S,11S)-4^4-methyl-7,10,14-trioxo-8-phenethyl-3-oxa-6,9-diaza-1(3,1)-pyrrolidina-4(1,3)-benzenacyclotetradecaphane-11-yl)carbamate] | < 100 | < 100 | 100 to 500 | 100 to 500 |
| CO[C@@H](C(=O)N[C@H]1CC(=O)N2CCCC(CCOc3ccc(C)c(c3)CNC(=O)C(c3cnn(C)c3)NC1=O)C2)c1ccccc1 (stereo partly drawn) [Compound 361, (2R)-2-methoxy-N-((12S)-5^4-methyl-9-(1-methyl-1H-pyrazol-4-yl)-8,11,14-trioxo-4-oxa-7,10-diaza-1(3,1)-piperidina-5(1,3)-benzenacyclotetradecaphane-12-yl)-2-phenylacetamide] | < 100 | < 100 | < 100 | 100 to 500 |
| Cc1ccc2cc1CNC(=O)[C@H](CCc1ccccc1)NC(=O)[C@@H](NC(=O)Cc1ccccc1C)CC(=O)N1CCCC(CCO2)C1 (stereo partly drawn) [Compound 373, N-((9S,12S)-5^4-methyl-8,11,14-trioxo-9-phenethyl-4-oxa-7,10-diaza-1(3,1)-piperidina-5(1,3)-benzenacyclotetradecaphane-12-yl)-2-(o-tolyl)acetamide] | < 100 | < 100 |  | < 100 |
